Laboratory results published in PubChem BioAssay (NCI).
Several values for one entry are separate records, joined by “and”; a condition that tells them apart may be missing. Identical values can stand only once.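 1) Cells in 96-well plates. 2) Compound, 48 h, 5 concentrations. 3) Linear interpolation between surrounding doses. 4) Unreached endpoint = highest concentration. Abbreviation: GI50, concentration required for 50% inhibition of growth. TGI is the concentration that stops growth completely.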

Columns and labels:
Assay in all cases: NCI anticancer screen, dose series, 48 h
MOLT-4 leukemia = test system: MOLT-4 leukemia
OVCAR-3 ovarian = test system: OVCAR-3 ovarian
OVCAR-8 ovarian = test system: OVCAR-8 ovarian
U251 CNS = test system: U251 CNS
HCT-116 colon = test system: HCT-116 colon
M14 melanoma = test system: M14 melanoma
HOP-62 NSCLC = test system: HOP-62 NSCLC
TK-10 renal = test system: TK-10 renal
CCRF-CEM leukemia = test system: CCRF-CEM leukemia
HT29 colon = test system: HT29 colon

| SMILES | TGI (MOLT-4 leukemia) [µM] | TGI (OVCAR-3 ovarian) [µM] | TGI (OVCAR-8 ovarian) [µM] | TGI (U251 CNS) [µM] | TGI (HCT-116 colon) [µM] | TGI (M14 melanoma) [µM] | TGI (HOP-62 NSCLC) [µM] | TGI (TK-10 renal) [µM] | TGI (CCRF-CEM leukemia) [µM] | TGI (HT29 colon) [µM] | GI50 (OVCAR-3 ovarian) | GI50 (OVCAR-8 ovarian) [µM] | GI50 (U251 CNS) [µM] | GI50 (HCT-116 colon) [µM] | GI50 (M14 melanoma) [µM] | GI50 (HOP-62 NSCLC) [µM] | GI50 (HT29 colon) [µM] | GI50 (TK-10 renal) [µM] | GI50 (CCRF-CEM leukemia) [µM] | GI50 (MOLT-4 leukemia) [µM] |
| --- | --- | --- | --- | --- | --- | --- | --- | --- | --- | --- | --- | --- | --- | --- | --- | --- | --- | --- | --- | --- |
| COc1c(NC(C)=O)cc(C)cc1NC(C)=O | > 100 | > 100 | > 100 | > 100 | > 100 | > 100 | > 100 | > 100 | > 100 | – | – | – | – | – | – | – | – | – | – | – |
| CC(=O)c1c(C)n(C)c2c1nnc1ccccc12 | – | > 100 | > 100 | > 100 | > 100 | > 100 | > 100 | > 100 | > 100 | > 100 | – | – | – | – | – | – | – | – | – | – |
| C=CC(C)(O)/C=C/C=C(\C)C(CC1OC1(C)C)OC(=O)/C(C)=C\C (centres undefined) | > 100 | > 100 | > 100 | > 100 | > 100 | > 100 | > 100 | > 100 | – | > 100 | – | – | – | – | – | – | – | – | – | – |
| CO/N=C(\C)c1cccc(Nc2cc(-c3ccccc3)nc3c(O)cccc23)c1 | – | 7.12 | 25.9 | 16.7 | 15.2 | 18.2 | 8.39 | 22.8 | 8.74 | 59.7 | 2.34 µM | 5.52 | 4.38 | 3.21 | 3.13 | 3.47 | 21.8 | 6.89 | 2.57 | – |
| Cc1cc(=O)[nH]o1 | – | > 100 | > 100 | > 100 | > 100 | > 100 | > 100 | > 100 | – | > 100 | – | – | – | – | – | – | – | – | – | – |
| CN=C(NC#N)NCCSCc1nc[nH]c1C | > 100 | > 100 | > 100 | > 100 | > 100 | > 100 | > 100 | – | > 100 | > 100 | – | – | – | – | – | – | – | – | – | – |
| O=C(CSC(c1ccccc1)c1ccccc1)N/N=C/c1cccc(Cl)c1 | 43.2 | 38.9 | 39.6 | 31.5 | 29.1 | 29 | 31.6 | 34.9 | 31 | – | 21.4 µM | 17.6 | 17.7 | 15.7 | 15.3 | 17.3 | – | 19.2 | 0.755 | 19.1 |
| C=CC[P+](c1ccccc1)(c1ccccc1)c1ccccc1 | > 100 | > 100 | > 100 | > 100 | > 100 | > 100 | > 100 | – | > 100 | > 100 | 1.99 µM | 3.25 | 3.44 | 3.48 | 8.09 | 12.1 | 3.21 | – | 3.4 | 5.07 |
| CCOc1cc2c(cc1O)/C(=N\O)C[C@@H]1[C@@H]2CC[C@]2(C)[C@@H](O)CC[C@@H]12 | 0.977 | – | > 100 | > 100 | – | > 100 | > 100 | > 100 | – | > 100 | 0.0114 µM and 0.0299 µM | – | 0.0324 | – | 0.041 | – | 3.94 | – | – | – |
| COc1ccc2c(c1)[n+]([O-])c(-c1ccccc1)c(N)[n+]2[O-] | > 100 | > 100 | > 100 | > 100 | – | 78.9 | 96.7 | > 100 | > 100 | > 100 | – | – | – | – | – | – | – | – | – | – |
| Oc1ccc(O)c(-c2cc(-c3ccccc3)nn2-c2ccccc2)c1 | > 100 | > 100 | 74 | 19.9 | 21.8 | 25.4 | 32.3 | 71 | – | > 100 | 22.8 µM | 17.2 | 5.7 | 9.71 | 12.4 | 16.8 | 73.9 | 14 | – | 60.5 |
| C/C(=N\N=C(\[Se])N1CCN(c2ccccn2)CC1)c1ccccn1 | – | – | 20.6 | 16.7 | 6.27 | 16.7 | – | 20.6 | – | 14.2 | – | 0.000541 | – | 0.00589 | 0.0254 | – | 0.00203 | – | – | 0.00298 |
| CC(=O)c1cccc(NC(=O)C(=O)C(C2OC(=O)c3ccccc32)[N+](=O)[O-])c1 (centres undefined) | > 100 | > 100 | – | > 100 | > 100 | > 100 | > 100 | > 100 | > 100 | > 100 | – | – | – | – | – | – | – | – | – | – |
| O=c1cc(N2CCNCC2)oc2c(-c3ccccc3)cccc12 | 56.8 | > 100 | > 100 | > 100 | – | 29.1 | > 100 | > 100 | 69.5 | > 100 | 24.6 µM | 74.2 | 35.4 | – | 15.6 | 65.4 | 24.8 | 27.9 | 25.5 | 19.4 |
| COc1ccc(N=Nc2c(-c3ccccc3)nn(C(=O)CC(=O)Nc3cccc(Cl)c3)c2-c2ccccc2)cc1 | > 100 | > 100 | > 100 | > 100 | > 100 | – | > 100 | > 100 | > 100 | > 100 | – | – | – | – | – | – | – | – | – | – |
| COc1ccc(-c2nn(-c3cccc(NC(=O)c4ccc5c(c4)OCCO5)c3)cc2-c2ccncc2)cc1Cl | 25.7 | – | > 100 | 12.7 | 14.5 | 4.28 | 20.8 | 29.3 | 10.3 | 12.1 | – | 2.47 | 1.18 | 2.03 | 1.57 | 2.94 | 1.88 | 5.25 | 1.68 | 2.46 |
| CCOC(=O)c1c2c(n(Cc3ccccc3)c1C)-c1ccccc1C(=O)C2=O | – | 29.3 | 43.7 | 20.8 | 25.2 | 24.5 | 27.1 | 34.6 | 13.5 | 25.7 | 12.2 µM | 14.9 | 8.75 | 11.6 | 11.9 | 13.7 | 11.8 | 16.3 | 3.36 | – |
